EP0377044B1, “PROTECTIVE AGENT FOR RADIATION HAZARD” (MITSUI TOATSU CHEMICALS, Inc., priority 1988, dated 1989)
Square brackets hold non-standard residues; d marks the D form. Peptide text beside a SMILES is read from it. pGlu = O=C1CC[C@@H](C(=O)O)N1

Columns and labels:
[1] = tested on: animals subjected to whole body irradiation with lethal or sub-lethal doses; experiment: Recovery of hematopoietic dysfunctions and immune responses after whole body irradiation (general description); type: in vivo
Experimental: On the other hand, animals were subjected to whole body irradiation with lethal or sub-lethal doses and changes with the lapse of time in the number of blood cells were measured for given periods of time in order to check the medicament for the promotive effect on the recovery of hematopoietic dysfunctions. Blood cells used as index included red blood cells, reticulocytes, white blood cells such as lymphocytes and neutrophils, platelets, hemoglobins, hematocrit and the like. […] Thus, as is evident from these observations, the medicament of the present invention is believed to act on hematopoietic organs, e.g. bone marrow and spleen, and exert the life span-extending or life-saving effect due to its inhibitory or recovery-promoting effect on hematopoietic dysfunctions, and it is therefore valuable as a preventive and therapeutic agent against radiation damages.

[2] = tested on: mice irradiated with 800R X-rays; experiment: Survival of mice after whole body irradiation with 800R X-rays; type: in vivo, C3H/He mice; conditions: for The number of days and survivals after X-radiation 10 (days) / The number of days and survivals after X-radiation 11 (days) / The number of days and survivals after X-radiation 12 (days) / The number of days and survivals after X-radiation 13 (days) / The number of days and survivals after X-radiation 14 (days) / The number of days and survivals after X-radiation 15 (days) / The number of days and survivals after X-radiation 16 (days) / The number of days and survivals after X-radiation 17 (days) / The number of days and survivals after X-radiation 18 (days) / The number of days and survivals after X-radiation 19 (days) / The number of days and survivals after X-radiation 20 (days) / The number of days and survivals after X-radiation 25 (days) / The number of days and survivals after X-radiation 30 (days): 14 days; for The number of days and survivals after X-radiation 10 (days): day 10, 15 animals used; for The number of days and survivals after X-radiation 11 (days): day 11, 15 animals used; for The number of days and survivals after X-radiation 12 (days): day 12, 15 animals used; for The number of days and survivals after X-radiation 13 (days): day 13, 15 animals used; for The number of days and survivals after X-radiation 14 (days): day 14, 15 animals used; for The number of days and survivals after X-radiation 15 (days): day 15, 15 animals used; for The number of days and survivals after X-radiation 16 (days): day 16, 15 animals used; for The number of days and survivals after X-radiation 17 (days): day 17, 15 animals used; for The number of days and survivals after X-radiation 18 (days): day 18, 15 animals used; for The number of days and survivals after X-radiation 19 (days): day 19, 15 animals used; for The number of days and survivals after X-radiation 20 (days): day 20, 15 animals used; for The number of days and survivals after X-radiation 25 (days): day 25, 15 animals used; for The number of days and survivals after X-radiation 30 (days): day 30, 15 animals used
Experimental: Male, 10 week-old C3H/He mice were used and groups of 10 - 15 animals each were prepared.
The mice were subjected to whole body irradiation for 8 minutes using a X-radiation unit (manufactured by Shimazu Seisaku-sho, Shin-Ai 250 II). These animals received, once per day, subcutaneous administration of 100 µg of FTS·CH₃COOH·2H₂O as used in Example 1 for consecutive 14 days. For a pre-administered group, the administration started two days before the irradiation. For a post-administered group, the first administration was effected immediately after the irradiation. As control groups, one group which received only once subcutaneous administration of 1 KE of Picibanil immediately after the irradiation and another group which received every day administration of physiological saline were prepared.

[3] = post-administration 100 µg s.c. once per day, from immediately after irradiation
[4] = pre-administration 100 µg s.c. once per day, from two days before irradiation

SMILES: C[C@H](NC(=O)[C@@H]1CCC(=O)N1)C(=O)N[C@@H](CCCCN)C(=O)N[C@@H](CO)C(=O)N[C@@H](CCC(N)=O)C(=O)NCC(=O)NCC(=O)N[C@@H](CO)C(=O)N[C@@H](CC(N)=O)C(=O)O [medicament, pGlu-Ala-Lys-Ser-Gln-Gly-Gly-Ser-Asn] ([pGlu]AKSQGGSN-OH)
- immune responses of immunocytes (spleen cells response to Con A, thymus cells reactivity to IL-1) ([1]; irradiated animals, examined every day, versus control group): apparently higher than those for the control group
- immunocytes capabilities of humoral factor production (IL-1 by peritoneal macrophage, CSF by spleen cells and peritoneal macrophage) ([1]; irradiated animals, versus control group): superior to the control group
- reduction of blood cells due to irradiation ([1]; whole body irradiation with lethal or sub-lethal doses, red blood cells, reticulocytes, white blood cells, platelets, hemoglobins, hematocrit): markedly inhibited
- dying of mice due to irradiation ([2]; 100 µg s.c. once per day for 14 days, summary of Table 1): clearly prevents or inhibits the dying of mice due to irradiation
- The number of days and survivals after X-radiation 10 (days) [2, 3]: 15
- The number of days and survivals after X-radiation 11 (days) [2, 3]: 15
- The number of days and survivals after X-radiation 12 (days) [2, 3]: 15
- The number of days and survivals after X-radiation 13 (days) [2, 3]: 14
- The number of days and survivals after X-radiation 14 (days) [2, 3]: 13
- The number of days and survivals after X-radiation 15 (days) [2, 3]: 10
- The number of days and survivals after X-radiation 16 (days) [2, 3]: 8
- The number of days and survivals after X-radiation 17 (days) [2, 3]: 6
- The number of days and survivals after X-radiation 18 (days) [2, 3]: 6
- The number of days and survivals after X-radiation 19 (days) [2, 3]: 6
- The number of days and survivals after X-radiation 20 (days) [2, 3]: 6
- The number of days and survivals after X-radiation 25 (days) [2, 3]: 5
- The number of days and survivals after X-radiation 30 (days) [2, 3]: 5
- The number of days and survivals after X-radiation 10 (days) [2, 4]: 15
- The number of days and survivals after X-radiation 11 (days) [2, 4]: 15
- The number of days and survivals after X-radiation 12 (days) [2, 4]: 15
- The number of days and survivals after X-radiation 13 (days) [2, 4]: 15
- The number of days and survivals after X-radiation 14 (days) [2, 4]: 15
- The number of days and survivals after X-radiation 15 (days) [2, 4]: 14
- The number of days and survivals after X-radiation 16 (days) [2, 4]: 13
- The number of days and survivals after X-radiation 17 (days) [2, 4]: 11
- The number of days and survivals after X-radiation 18 (days) [2, 4]: 11
- The number of days and survivals after X-radiation 19 (days) [2, 4]: 11
- The number of days and survivals after X-radiation 20 (days) [2, 4]: 9
- The number of days and survivals after X-radiation 25 (days) [2, 4]: 9
- The number of days and survivals after X-radiation 30 (days) [2, 4]: 9
